# Experimental data as given in patent US20160346291A1, “COMPOSITIONS AND THERAPEUTIC METHODS FOR ACCELERATED PLAQUE REGRESSION” (Resverlogix Corp, priority 2013, published 2016).
# Test system: ApoA-I mRNA
# Experiment: ApoA-I mRNA quantitation in HepG2 cells (real-time PCR)
# Assay type: cell-based
# Parameters: key: Active: An active compound is one that causes a >15% increase in ApoA-I mRNA at a concentration less than or equal to 100 uM
# Conditions: concentration less than or equal to 100 uM, fold induction relative to DMSO control
# Method: At time of harvesting, the spent media was removed from the HepG2 cells and immediately placed on ice (for immediate use) or at −80° C. (for future use) in ApoA-I and albumin ELISAs. The cells remaining in the plate wells were rinsed in 200 μL PBS. PBS was carefully removed to avoid removing any loosely attached cells.
# Once the PBS was removed, 85 μL cell lysis solution was added to the cells in each well and incubated for 5-10 min at room temperature, to allow for complete cell lysis and detachment. mRNA was then prepared using the “mRNA Catcher PLUS plate” from Invitrogen, according to the protocol supplied. After the last wash, as much wash buffer as possible was aspirated without allowing the wells to dry. Elution Buffer (E3, 80 μL) was then added to each well. mRNA was then eluted by incubating the mRNA Catcher PLUS plate with Elution Buffer for 5 min at 68° C. and then immediately placing the plate on ice.
# The eluted mRNA was isolated and then used in a one-step real-time […]-PCR reaction, using components of the Ultra Sense Kit together with Applied Biosystems primer-probe mixes. Real-time PCR data was analyzed, using the Ct values, to determine the fold induction of each unknown sample, relative to the control (that is, relative to the control for each independent DMSO concentration).
# The following compounds of Formula I were evaluated in this assay. An active compound is one that causes a >15% increase in ApoA-I mRNA at a concentration less than or equal to 100 uM.
row,SMILES,Effect on ApoA-I mRNA levels
1,"COc1ccc(C(=O)NCCOc2c(C)cc(-c3nc4cc(OC)cc(OC)c4c(=O)[nH]3)cc2C)cc1 [N-(2-(4-(5,7-dimethoxy-4-oxo-3,4-dihydroquinazolin-2-yl)-2,6-dimethylphenoxy)ethyl)-4-methoxybenzamide]",Active
2,"Cc1cc(-c2nc3ccc(Br)cc3c(=O)[nH]2)cc(C)c1OCCO [6-bromo-2-(4-(2-hydroxyethoxy)-3,5-dimethylphenyl)quinazolin-4(3H)-one]",Active
3,"COc1cc(OC)c2c(=O)[nH]c(-c3cccc(-c4ccc(S(C)(=O)=O)cc4)n3)nc2c1 [5,7-dimethoxy-2-(6-(4-(methylsulfonyl)phenyl)pyridin-2-yl)quinazolin-4(3H)-one]",Active
4,"COc1cc(OC)c2c(=O)[nH]c(-c3ccc(O)c(C)c3)nc2c1 [2-(4-hydroxy-3-methylphenyl)-5,7-dimethoxyquinazolin-4(3H)-one]",Active
5,"COc1cc(OC)c2c(=O)[nH]c(-c3ccc(N4CCN(C)CC4)cc3)nc2c1 [5,7-dimethoxy-2-(4-(4-methylpiperazin-1-yl)phenyl)quinazolin-4(3H)-one]",Active
6,"COc1cc(OC)c2c(=O)[nH]c(-c3cc(C)c(OCCO)c(C)c3)nc2n1 [2-(4-(2-hydroxyethoxy)-3,5-dimethylphenyl)-5,7-dimethoxypyrido[2,3-d]pyrimidin-4(3H)-one]",Active
7,"COc1cc(OC)c2c(=O)[nH]c(-c3cc(C)nc(Cl)c3)nc2c1 [2-(2-chloro-6-methylpyridin-4-yl)-5,7-dimethoxyquinazolin-4(3H)-one]",Active
8,"COc1ccc(NC(=O)NCCOc2c(C)cc(-c3nc4cc(OC)cc(OC)c4c(=O)[nH]3)cc2C)cc1 [1-(2-(4-(5,7-dimethoxy-4-oxo-3,4-dihydroquinazolin-2-yl)-2,6-dimethylphenoxy)ethyl)-3-(4-methoxyphenyl)urea]",Active
9,"COc1cc(OC)c2c(=O)[nH]c(-c3cc(C)c(OCCN4CCN(C)CC4)c(C)c3)cc2c1 [3-(3,5-dimethyl-4-(2-(4-methylpiperazin-1-yl)ethoxy)phenyl)-6,8-dimethoxyisoquinolin-1(2H)-one]",Active
10,CN(C)c1ccc(-c2nc3ccccc3c(=O)[nH]2)c2ccccc12 [2-(4-(dimethylamino)naphthalene-1-yl)quinazolin-4(3H)-one],Active
11,"Cc1cc(-c2nc3ccc(Br)cc3c(=O)[nH]2)cc(C)c1OCCO[Si](C)(C)C(C)(C)C [6-bromo-2-(4-(2-(tert-butyldimethylsilyloxy)ethoxy)-3,5-dimethylphenyl)quinazolin-4(3H)-one]",Active
12,"COc1cc(OC)c2cnc(-c3cc(C)c(O)c(C)c3)cc2c1 [4-(6,8-dimethoxyisoquinolin-3-yl)-2,6-dimethylphenol]",Active
13,"COc1cc(OC)c2c(=O)[nH]c(-c3ccccn3)nc2c1 [5,7-dimethoxy-2-(pyridin-2-yl)quinazolin-4(3H)-one]",Active
14,"COc1cc(OC)c2c(=O)[nH]c(-c3cc(C)c(OCCNS(=O)(=O)c4ccccc4)c(C)c3)nc2c1 [N-(2-(4-(5,7-dimethoxy-4-oxo-3,4-dihydroquinazolin-2-yl)-2,6-dimethylphenoxy)ethyl)benzenesulfonamide]",Active
15,"COc1cc(OC)c2cnc(-c3cc(C)c(OCCO)c(C)c3)nc2c1 [2-(4-(5,7-dimethoxyquinazolin-2-yl)-2,6-dimethylphenoxy)ethanol]",Active
16,"COc1cc(OC)c2c(=O)[nH]c(-c3cc(C)c(N)c(C)c3)nc2c1 [2-(4-amino-3,5-dimethylphenyl)-5,7-dimethoxyquinazolin-4(3H)-one]",Active
17,"COc1cc(OC)c2c(=O)[nH]c(-c3cc(C)cc(C)c3)nc2c1 [2-(3,5-dimethylphenyl)-5,7-dimethoxyquinazolin-4(3H)-one]",Active
18,"N=C(N)NCCCC(N)C(=O)Oc1ccc(-c2cc3ccccc3c(=O)[nH]2)cc1 (stereo not drawn) [4-(1-Oxo-1,2-dihydroisoquinolin-3-yl)phenyl 2-amino-5-guanidinopentanoate]",Active
19,"Cc1cc(-c2nc3ccc(CN4CCOCC4)cc3c(=O)[nH]2)cc(C)c1O [2-(4-hydroxy-3,5-dimethylphenyl)-6-(morpholinomethyl)quinazolin-4(3H)-one]",Active
20,"COc1cc(OC)c2c(=O)[nH]c(-c3cc(C)c(OCCNS(C)(=O)=O)c(C)c3)nc2c1 [N-(2-(4-(5,7-dimethoxy-4-oxo-3,4-dihydroquinazolin-2-yl)-2,6-dimethylphenoxy)ethyl)methanesulfonamide]",Active

row,SMILES,Effect on ApoA-I mRNA levels
1,"COc1cc(OC)c2c(=O)[nH]c(-c3cc(C)c(OCCNC(=O)N(C)C)c(C)c3)nc2c1 [3-(2-(4-(5,7-dimethoxy-4-oxo-3,4-dihydroquinazolin-2-yl)-2,6-dimethylphenoxy)ethyl)-1,1-dimethylurea]",Active
2,"COc1cc(OC)c2c(=O)[nH]c(-c3ccncc3)nc2c1 [5,7-dimethoxy-2-(pyridin-4-yl)quinazolin-4(3H)-one]",Active
3,"COc1cc(OC)c2c(=O)[nH]c(-c3cc(C)c(OCCO)c(C)c3)nc2c1 [2-(4-(2-hydroxyethoxy)-3,5-dimethylphenyl)-5,7-dimethoxyquinazolin-4(3H)-one]",Active
4,"COc1ccc2nc(-c3cc(C)c(OCCO)c(C)c3)[nH]c(=O)c2c1 [2-(4-(2-hydroxyethoxy)-3,5-dimethylphenyl)-6-methoxyquinazolin-4(3H)-one]",Active
5,"COc1cc(OC)cc(-c2nc3cc(OC)cc(OC)c3c(=O)[nH]2)c1 [2-(3,5-dimethoxyphenyl)-5,7-dimethoxyquinazolin-4(3H)-one]",Active
6,"Cc1cc(-c2cc3nc(OC(C)C)cc(OC(C)C)c3c(=O)[nH]2)cc(C)c1O [7-(4-hydroxy-3,5-dimethylphenyl)-2,4-diisopropoxy-1,6-naphthyridin-5(6H)-one]",Active
7,"COc1cc(OC)c2c(=O)[nH]c(-c3cc(C)c(OCCN4CCOCC4)c(C)c3)cc2c1 [3-(3,5-dimethyl-4-(2-morpholinoethoxy)phenyl)-6,8-dimethoxyisoquinolin-1(2H)-one]",Active
8,"COc1cc(OC)c2c(=O)[nH]c(-c3cc(C)c(OCCNS(=O)(=O)c4ccc(C)cc4)c(C)c3)nc2c1 [N-(2-(4-(5,7-dimethoxy-4-oxo-3,4-dihydroquinazolin-2-yl)-2,6-dimethylphenoxy)ethyl)-4-methylbenzenesulfonamide]",Active
9,"CNC(=O)NCCOc1c(C)cc(-c2nc3cc(OC)cc(OC)c3c(=O)[nH]2)cc1C [1-(2-(4-(5,7-dimethoxy-4-oxo-3,4-dihydroquinazolin-2-yl)-2,6-dimethylphenoxy)ethyl)-3-methylurea]",Active
10,"COc1cc(OC)c2c(=O)[nH]c(-c3ccc(O)c(Cl)c3)nc2c1 [2-(3-chloro-4-hydroxyphenyl)-5,7-dimethoxyquinazolin-4(3H)-one]",Active
11,"Cc1cc(-c2nc3cc(Cl)cc(Cl)c3c(=O)[nH]2)cc(C)c1OCCO [5,7-dichloro-2-(4-(2-hydroxyethoxy)-3,5-dimethylphenyl)quinazolin-4(3H)-one]",Active
12,"COc1cc(OC)c2c(=O)[nH]c(-c3ccc(O)c(CCO)c3)nc2c1 [2-(4-hydroxy-3-(2-hydroxyethyl)phenyl)-5,7-dimethoxyquinazolin-4(3H)-one]",Active
13,"COc1cc(OC)c2c(=O)[nH]c(-c3cc(C)c(OCc4ccccc4)c(C)c3)nc2c1 [2-(4-(benzyloxy)-3,5-dimethylphenyl)-5,7-dimethoxyquinazolin-4(3H)-one]",Active
14,"COc1cc(OC)c2c(=O)[nH]c(-c3cc(C)c(OCCNC(C)=O)c(C)c3)nc2c1 [N-(2-(4-(5,7-dimethoxy-4-oxo-3,4-dihydroquinazolin-2-yl)-2,6-dimethylphenoxy)ethyl)acetamide]",Active
15,"CC(=O)Nc1ccc2nc(-c3cc(C)c(O)c(C)c3)[nH]c(=O)c2c1 [N-(2-(4-hydroxy-3,5-dimethylphenyl)-4-oxo-3,4-dihydroquinazolin-6-yl)acetamide]",Active
16,"COc1cc(OC)c2c(=O)n(C)c(-c3cc(C)c(O)c(C)c3)cc2c1 [3-(4-hydroxy-3,5-dimethylphenyl)-6,8-dimethoxy-2-methylisoquinolin-1(2H)-one]",Active
17,"COc1cc(OC)c2c(=O)[nH]c(-c3ccc(CCC(=O)O)cc3)nc2c1 [3-(4-(5,7-dimethoxy-4-oxo-3,4-dihydroquinazolin-2-yl)phenyl)propanoic acid]",Active
18,"Cc1cc(-c2nc3ccccc3c(=O)[nH]2)cc(C)c1OCCO [2-(4-(2-hydroxyethoxy)-3,5-dimethylphenyl)quinazolin-4(3H)-one]",Active
19,"COc1cc(OC)c2c(=O)[nH]c(-c3ccc(CN4CCN(C)CC4)cc3)nc2c1 [5,7-dimethoxy-2-(4-((4-methylpiperazin-1-yl)methyl)phenyl)quinazolin-4(3H)-one]",Active
